Experimental data from patent publication US4434788A, “Enhancer of anti-tumor effect” (Yamasa Shoyu Kabushiki Kaisha, priority 1980, dated 1984).
Read-outs that look alike come from different tables or passages of the source.

Key:
EMT-6 tumors [1] = assay: Radiosensitizing effect on EMT-6 tumor in mouse, 1500 rad, tumor size and cure; format: in vivo, BALB/c-strain female mice
[2] = tested on: potentially lethal damage repair; assay: PLDR-inhibiting / radiosensitizing activity (general statements)
[3] = tested on: Chinese hamster-HA-1 cells; assay: Plating efficiency of stationary-phase HA-1 cells given enhancer immediately after 1,000 R X-ray (inhibition of PLDR); format: cell-based; conditions: for Plating efficiency after 4 hours: control 2.1; for Plating efficiency after 7 hours: control 3.3
Protocol: (§1) (1) Cells under stationary phase, prepared by planting 2×10^5 cells/well of Chinese hamster-HA-1 cells in a multiwell dish and exchanging cultural medium every day starting on the third day and thereafter were irradiated with 1,000 R of X-rays. Immediately after radiation, 3'-dUrd, and 3'-dGuo in HANKs' balanced salt solution were administered. Then, after elapse of various times, the cells were taken off with trypsin, and a suitable number of cells were transferred into petri dishes for testing colony forming ability and plating efficiencies. The percentages of survival were calculated with corrections by the plating efficiencies with the pharmaceutical agents alone.

[4] = as above; format: cell-based, Chinese hamster; conditions: chinese hamster, ha-1 cells, no irradiation, control 51, read-out: Plating efficiency, treated only with enhancer (after 7 hours)
Protocol: as §1

Acute toxicity test = conditions: mouse, in vivo, ip, ICR mice, male, one week; estimated
Protocol: A quantity of 3'-dGuo was administered intraperitoneally to ICR mice (male, 8-weeks old, 10 mice for each group) in a dose of 500 mg/kg or 1,000 mg/kg, and the mice were subjected to observation for a week.

EMT-6 tumors [5] = assay: Enhancement of the effect of anti-tumor agents on EMT-6 tumor in mouse; format: in vivo, BALB/c-strain mice
Protocol: (1) EMT-6 tumor cells (1×10^6) were inoculated intradermally into the right thighs of BALB/c-strain mice (7 weeks old). On the 10th day after inoculation of the tumor cells and thereafter, various enhancer chemicals in physiological saline solutions were administered intrapenitoneally to the mouse every other day in the indicated doses for respective agents. The pharmaceutical agents of the present invention were administered 30 minutes after administration of the anti-tumor agents. After commencement of the treatment with pharmaceutical agents, the tumor sizes were measured every other day and compared with the control group.

EMT-6 tumors [6] = assay: Radiosensitizing effect on EMT-6 tumor in mouse, cure percentage and TCD50; format: in vivo, BALB/c-strain female mice; conditions: 100 mg/kg i.p. after irradiation; for Cure number/Number treated / Cure percentage: >90 days
Protocol: EMT-6 tumor cells (2×10^5) were inoculated intradermally into the right thighs of BALB/c-strain female mice (8 weeks old). When the tumor sizes reached 5.5 to 8.0 mm after inoculation of the tumor cells, irradiation was locally carried out with 1,000 rad to 2,700 rad of 32 MeV electron beam under no anesthesia, and thereafter 3'-dAdo and 3'-dGuo, each dissolved in physiological saline solution, were administered intraperitoneally in a dose of 100 mg/kg. After the treatments, observation was continued for longer than 90 days, and the cure percentages were determined for comparison with the control group. [formula]
(2) TCD50 =50% Tumor control dose

[7] = Irradiation 1500 rad + 3'-dGuo 2.0 mg/mouse, irradiation alone 0%
[8] = Irradiation 1500 rad + 3'-dGuo 2.0 mg/mouse, irradiation alone 0/10

For `Nc1nc2c(ncn2[C@@H]2O[C@H](CO)C[C@H]2O)c(=O)[nH]1` [3'-dGuo, 3'-deoxyguanosine], the “Mean tumor diameter 2 weeks after treatment” value (EMT-6 tumors [1]; 3'-dGuo 100 mg/kg i.p. after 1500 rad, n = 19, baseline 6.19 ± 0.16 mm, irradiation alone 7.41) was 6.82 ± 0.44 mm, the “Mean tumor diameter 3 weeks after treatment” value (EMT-6 tumors [1]; 3'-dGuo 100 mg/kg i.p. after 1500 rad, n = 19, baseline 6.19 ± 0.16 mm, irradiation alone 8.29) was 4.83 ± 0.80 mm and the “Diameter ratio 2 weeks after treatment” value (EMT-6 tumors [1]; 3'-dGuo 100 mg/kg i.p. after 1500 rad, n = 19, irradiation alone 1.09) was 1.09 ± 0.06. The “Diameter ratio 3 weeks after treatment” value (EMT-6 tumors [1]; 3'-dGuo 100 mg/kg i.p. after 1500 rad, n = 19, irradiation alone 1.17) was 0.72 ± 0.12, the “Volume ratio 2 weeks after treatment” value (EMT-6 tumors [1]; 3'-dGuo 100 mg/kg i.p. after 1500 rad, n = 19, irradiation alone 1.44) was 1.49 ± 0.19 and the “Volume ratio 3 weeks after treatment” value (EMT-6 tumors [1]; 3'-dGuo 100 mg/kg i.p. after 1500 rad, n = 19, irradiation alone 2.06) was 0.92 ± 0.21. The “Cure (number of mice)” value (EMT-6 tumors [1]; Irradiation 1500 rad + 3'-dGuo 2.0 mg/mouse, 28 days, irradiation alone 1/10) was 6/19, the “Cure (percent)” value (EMT-6 tumors [1]; Irradiation 1500 rad + 3'-dGuo 2.0 mg/mouse, 28 days, irradiation alone 10%) was 32% and the “0.5 to less than 1 of volume ratio excluding cure; Tumor regression rate: slow (percent)” value (EMT-6 tumors [1]; [7]) was 18%. For the same compound, the “Less than 0.5 of volume ratio excluding cure; Tumor regression rate: rapid (percent)” value (EMT-6 tumors [1]; [7]) was 11%, the “0.5 to less than 1 of volume ratio excluding cure; Tumor regression rate: slow (number)” value (EMT-6 tumors [1]; [8]) was 3/19 and the “Less than 0.5 of volume ratio excluding cure; Tumor regression rate: rapid (number)” value (EMT-6 tumors [1]; [8]) was 2/19. The “1.0 to less than 2.0 of volume ratio excluding cure; regrowth: slow (number)” value (EMT-6 tumors [1]; Irradiation 1500 rad + 3'-dGuo 2.0 mg/mouse, irradiation alone 3/10) was 6/19, the “2.0 or more of volume ratio excluding cure; regrowth: rapid (number)” value (EMT-6 tumors [1]; Irradiation 1500 rad + 3'-dGuo 2.0 mg/mouse, irradiation alone 6/10) was 2/19 and the “1.0 to less than 2.0 of volume ratio excluding cure; regrowth: slow (percent)” value (EMT-6 tumors [1]; Irradiation 1500 rad + 3'-dGuo 2.0 mg/mouse, irradiation alone 30%) was 32%. For the same compound, the “2.0 or more of volume ratio excluding cure; regrowth: rapid (percent)” value (EMT-6 tumors [1]; Irradiation 1500 rad + 3'-dGuo 2.0 mg/mouse, irradiation alone 60%) was 11%, the Radiosensitizing activity [2] was “excellent radiosensitizing activities” and the “Plating efficiency after 4 hours” value ([3]; 3'-dGuo 10 μg/ml after 1,000 R) was 1.6%. For the same compound, the “Plating efficiency after 7 hours” value ([3]; 3'-dGuo 10 μg/ml after 1,000 R) was 2.6%, the “Plating efficiency after 1 hour” value ([3]; 3'-dGuo 10 μg/ml after 1,000 R, control (0 μg/ml) 1.4) was 1.3% and the “Plating efficiency after 1 hour” value ([3]; 3'-dGuo 20 μg/ml after 1,000 R, control 1.4) was 1.2%. For the same compound, the “Plating efficiency after 4 hours” value ([3]; 3'-dGuo 20 μg/ml after 1,000 R) was 1.3%, the “Plating efficiency after 7 hours” value ([3]; 3'-dGuo 20 μg/ml after 1,000 R) was 2.0% and the “Plating efficiency after 1 hour” value ([3]; 3'-dGuo 40 μg/ml after 1,000 R, control 1.4) was 0.96%. For the same compound, the “Plating efficiency after 4 hours” value ([3]; 3'-dGuo 40 μg/ml after 1,000 R) was 1.1%, the “Plating efficiency after 7 hours” value ([3]; 3'-dGuo 40 μg/ml after 1,000 R) was 1.6% and the “Inhibition of repair (PLDR) after irradiation with X-rays” value ([3]; HA-1 cells, Table 1) was “found to inhibit repair (PLDR) after irradiation with X-rays”. For the same compound, the “Toxicity as examined by plating efficiencies” value ([3]; HA-1 cells, Table 1) was “Substantially no toxicity was observed”, the viability at 7 h ([4]; 3'-dGuo 10 μg/ml) was 50% and the viability at 7 h ([4]; 3'-dGuo 20 μg/ml) was 47%. For the same compound, the viability at 7 h ([4]; 3'-dGuo 40 μg/ml) was 45%, the LD50 at 168 h (Acute toxicity test) was greater than 1000 mg/kg and the “Mean tumor diameter 18 days after commencement of treatment” value (“Mean tumor diameter 18 days” for short) (EMT-6 tumors [5]; 3'-dGuo alone 50 mg/kg × 6, n = 10, before treatment 6.75 ± 1.20, control 11.43 ± 2.30) was 10.92 ± 3.23 mm. The “Mean tumor diameter ratio 18 days after commencement of treatment” value (“Mean tumor diameter ratio 18 days” below) (EMT-6 tumors [5]; 3'-dGuo alone 50 mg/kg × 6, n = 10, control 1.97 ± 0.40) was 1.62 ± 0.48, the “Mean tumor diameter 7 days after commencement of treatment” value (“Mean tumor diameter 7 days” for short) (EMT-6 tumors [5]; 3'-dGuo alone 50 mg/kg × 8, n = 6, before treatment 6.08 ± 0.69, control 7.38 ± 0.69) was 7.45 ± 2.07 mm and the “Mean tumor diameter 14 days after commencement of treatment” value (from here on “Mean tumor diameter 14 days”) (EMT-6 tumors [5]; 3'-dGuo alone 50 mg/kg × 8, n = 6, before treatment 6.08 ± 0.69, control 9.20 ± 1.78) was 9.10 ± 2.65 mm. For the same compound, the “Mean tumor diameter ratio 7 days after commencement of treatment” value (shortened to “Mean tumor diameter ratio 7 days”) (EMT-6 tumors [5]; 3'-dGuo alone 50 mg/kg × 8, n = 6, control 1.27 ± 0.17) was 1.21 ± 0.24, the “Mean tumor diameter ratio 14 days after commencement of treatment” value (“Mean tumor diameter ratio 14 days” for short) (EMT-6 tumors [5]; 3'-dGuo alone 50 mg/kg × 8, n = 6, control 1.57 ± 0.40) was 1.48 ± 0.30 and the “Mean tumor diameter 7 days” value (EMT-6 tumors [5]; ACNU 25 mg/kg × 5 combined with 3'-dGuo 50 mg/kg × 5, n = 7, before treatment 6.23 ± 1.04, control 7.38) was 5.14 ± 2.29 mm. For the same compound, the “Mean tumor diameter 14 days” value (EMT-6 tumors [5]; ACNU 25 mg/kg × 5 combined with 3'-dGuo 50 mg/kg × 5, n = 7, before treatment 6.23 ± 1.04, control 9.20) was 4.90 ± 1.94 mm, the “Mean tumor diameter ratio 7 days” value (EMT-6 tumors [5]; ACNU 25 mg/kg × 5 combined with 3'-dGuo 50 mg/kg × 5, n = 7, control 1.27) was 0.80 ± 0.22 and the “Mean tumor diameter ratio 14 days” value (EMT-6 tumors [5]; ACNU 25 mg/kg × 5 combined with 3'-dGuo 50 mg/kg × 5, n = 7, control 1.57) was 0.76 ± 0.19. For the same compound, the “Mean tumor diameter 7 days” value (EMT-6 tumors [5]; ADM 2 mg/kg × 8 combined with 3'-dGuo 50 mg/kg × 8, n = 10, before treatment 6.59 ± 1.14, control 7.38) was 6.16 ± 2.00 mm, the “Mean tumor diameter 14 days” value (EMT-6 tumors [5]; ADM 2 mg/kg × 8 combined with 3'-dGuo 50 mg/kg × 8, n = 10, before treatment 6.59 ± 1.14, control 9.20) was 6.30 ± 2.54 mm and the “Mean tumor diameter ratio 7 days” value (EMT-6 tumors [5]; ADM 2 mg/kg × 8 combined with 3'-dGuo 50 mg/kg × 8, n = 10, control 1.27) was 0.92 ± 0.18. The “Mean tumor diameter ratio 14 days” value (EMT-6 tumors [5]; ADM 2 mg/kg × 8 combined with 3'-dGuo 50 mg/kg × 8, n = 10, control 1.57) was 0.94 ± 0.31, the “Mean tumor diameter 18 days” value (EMT-6 tumors [5]; BLM 25 mg/kg × 4 combined with 3'-dGuo 50 mg/kg × 4, n = 10, before treatment 6.65 ± 0.96, control 11.43) was 5.60 ± 1.67 mm and the “Mean tumor diameter ratio 18 days” value (EMT-6 tumors [5]; BLM 25 mg/kg × 4 combined with 3'-dGuo 50 mg/kg × 4, n = 10, control 1.97) was 0.84 ± 0.25. The “Mean tumor diameter 18 days” value (EMT-6 tumors [5]; FT-207 100 mg/kg × 6 combined with 3'-dGuo 50 mg/kg × 6, n = 11, before treatment 6.39 ± 0.94, control 11.43) was 3.18 ± 2.38 mm, the “Mean tumor diameter ratio 18 days” value (EMT-6 tumors [5]; FT-207 100 mg/kg × 6 combined with 3'-dGuo 50 mg/kg × 6, n = 11, control 1.97) was 0.50 ± 0.37 and the “Mean tumor diameter 7 days” value (EMT-6 tumors [5]; araC 50 mg/kg × 8 combined with 3'-dGuo 50 mg/kg × 8, n = 7, before treatment 6.04 ± 0.64, control 7.38) was 5.96 ± 1.77 mm. For the same compound, the “Mean tumor diameter 14 days” value (EMT-6 tumors [5]; araC 50 mg/kg × 8 combined with 3'-dGuo 50 mg/kg × 8, n = 7, before treatment 6.04 ± 0.64, control 9.20) was 5.34 ± 1.57 mm, the “Mean tumor diameter ratio 7 days” value (EMT-6 tumors [5]; araC 50 mg/kg × 8 combined with 3'-dGuo 50 mg/kg × 8, n = 7, control 1.27) was 0.97 ± 0.19 and the “Mean tumor diameter ratio 14 days” value (EMT-6 tumors [5]; araC 50 mg/kg × 8 combined with 3'-dGuo 50 mg/kg × 8, n = 7, control 1.57) was 0.88 ± 0.21. For the same compound, the TCD50 (50% Tumor control dose) (EMT-6 tumors [6]; radiation doses given in rad, control 2400) was 1250 rad, the TCD50 ratio (EMT-6 tumors [6]; relative to control 1.0) was 0.52 and the “Cure number/Number treated” value (EMT-6 tumors [6]; 1,000 rad, control 1/23) was 8/26. For the same compound, the Cure percentage (EMT-6 tumors [6]; 1,000 rad, control 4%) was 31%, the “Cure number/Number treated” value (EMT-6 tumors [6]; 1,500 rad, control 8/44) was 21/29 and the Cure percentage (EMT-6 tumors [6]; 1,500 rad, control 18%) was 72%. The “Cure number/Number treated” value (EMT-6 tumors [6]; 2,100 rad, control 9/24) was 22/28, the Cure percentage (EMT-6 tumors [6]; 2,100 rad, control 38%) was 79% and the “Cure number/Number treated” value (EMT-6 tumors [6]; 2,700 rad, control 13/28) was 22/25. For the same compound, the Cure percentage (EMT-6 tumors [6]; 2,700 rad, control 47%) was 88%.
